Series [1] deals with T1, Sphingosine 1-phosphate receptor 1 (Homo sapiens, UniProt P21453). Description: Agonist activity at S1P1 (unknown origin) expressed in human HEK293/Galpha15 cells assessed as Ca2+ activation at 1 uM measured for 2 hrs by FLIPR analysis relative to control. In kind it is functional, cell-based.
Series [2] concerns the target T1, Sphingosine 1-phosphate receptor 1. Description: Agonist activity at S1P1 (unknown origin) expressed in PathHunter CHO-K1 EDG1 beta-arrestin cells assessed as beta-arrestin2 recruitment incubated for 90 mins by chemiluminescence based assay. In kind it is functional, cell-based.
For series [3] the target is unchanged. Description: Agonist activity at S1P1 (unknown origin) expressed in PathHunter CHO-K1 EDG1 beta-arrestin cells assessed as beta-arrestin2 recruitment at 1 uM incubated for 90 mins by chemiluminescence based assay relative to control. In kind it is functional, cell-based.
For series [4] the target is unchanged. Description: Agonist activity at S1P1 (unknown origin) expressed in human HEK293/Galpha15 cells assessed as Ca2+ activation measured for 2 hrs by FLIPR analysis. In kind it is functional, cell-based.
The nature of series [5]: Microsomal stability in mouse liver microsomes assessed as parent compound remaining preincubated for 5 mins followed by NADPH addition measured after 30 mins by LC-MS/MS analysis. In kind it is ADME, Microsome. The settings on record: time 35 min, read-out: Stability.
Series [6] can be described thus: Microsomal stability in human liver microsomes assessed as parent compound remaining preincubated for 5 mins followed by NADPH addition measured after 30 mins by LC-MS/MS analysis. In kind it is ADME, Microsome. The settings on record: time 35 min, read-out: Stability.

T1 sequence (P21453 whole entry): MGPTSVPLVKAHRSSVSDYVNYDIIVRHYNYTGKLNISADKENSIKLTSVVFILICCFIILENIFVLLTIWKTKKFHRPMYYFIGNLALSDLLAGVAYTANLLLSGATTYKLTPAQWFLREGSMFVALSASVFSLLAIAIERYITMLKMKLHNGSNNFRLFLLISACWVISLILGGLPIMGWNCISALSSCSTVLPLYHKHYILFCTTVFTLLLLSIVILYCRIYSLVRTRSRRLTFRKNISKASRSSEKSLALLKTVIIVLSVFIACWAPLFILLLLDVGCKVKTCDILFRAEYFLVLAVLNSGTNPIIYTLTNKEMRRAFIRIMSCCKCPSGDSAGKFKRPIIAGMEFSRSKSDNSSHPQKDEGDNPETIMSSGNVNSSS

In the case of `CNC(=O)CCC(=O)N1CCc2cc(OCc3ccc(OC(C)C)c(C#N)c3)ccc2C1`, the Activity in series [1] turned out to be 39%; in series [3] (filed as agonist), 82%. Besides, the EC50 in series [2] amounted to 1470 nM.
Regarding `CC(C)Oc1ccc(C(=O)Nc2ccc3c(c2)CCN(S(=O)(=O)CCC(=O)O)C3)cc1C#N`, the Activity in series [1] amounted to 18%; in series [3], 15%.
With `CC(C)Oc1ccc(COc2ccc3c(c2)CCN(C(=O)CC(=O)O)C3)cc1C#N`, the Activity came to 64% in series [1] (filed as agonist) and 42% in series [3] (filed as agonist). Also, the EC50 in series [4] worked out at 788 nM.
With `CC(C)Oc1ccc(COc2ccc3c(c2)CCN(S(=O)(=O)CCCO)C3C)cc1C#N` (configuration not stated), the Activity in series [1] stood at 12%; in series [3] (filed as agonist), 45%.
Turning to `COC(=O)CCS(=O)(=O)N1CCc2cc(NC(=O)c3ccc(OC(C)C)c(C#N)c3)ccc2C1`, the Activity in series [1] and in series [3] was 7% each time.
On to `COC(=O)CCS(=O)(=O)N1CCc2cc(N(C)Cc3ccc(OC(C)C)c(C#N)c3)ccc2C1`, for which the Activity in series [1] amounted to 12%; in series [3], 5%.
In the same order, the values of `CC(C)Oc1ccc(COc2ccc3c(c2)CN(S(=O)(=O)CCC(=O)O)CC3)cc1C#N` are 3% and 4%.
In the same order, the values of `CC(C)Oc1ccc(COc2ccc3c(n2)CCN(C(=O)CCC(=O)O)C3)cc1C#N` are 14% and 26%.
On to `COC(=O)CCN1CCc2cc(OCc3ccc(OC(C)C)c(C#N)c3)ccc2C1`, for which the Activity amounted to 40% in series [1] (filed as agonist) and 91% in series [3] (filed as agonist). Besides, the EC50 in series [2] came out at 331 nM.
In the case of `CC(C)Oc1ccc(COc2ccc3c(c2)CCN(C(=O)CCCNS(C)(=O)=O)C3)cc1C#N`, the Activity was 6% in series [1] and 68% in series [3] (filed as agonist). Further, the EC50 in series [2] is 743 nM.
Regarding `CC(C)Oc1ccc(COc2cccc3c2CCN(S(=O)(=O)CCC(=O)O)C3)cc1C#N`, the Activity in series [1] came to 4%; in series [3], 1%.
On to `CC(=O)NCCCC(=O)N1CCc2cc(OCc3ccc(OC(C)C)c(C#N)c3)ccc2C1`, for which the Activity in series [1] (filed as agonist) was determined as 55%; in series [3] (filed as agonist) it was 105%. The EC50 in series [2] amounted to 424 nM; in series [4], 1260 nM.
With `CC(C)Oc1ccc(COc2ccc3c(c2)CCN(CCCCO)C3)cc1C#N`, the figures for the Activity in series [1] and in series [3] were 3% and 24%, respectively.
With `COC(=O)CCS(=O)(=O)N1CCc2cc(Nc3ccc(OC(C)C)c(C#N)c3)ccc2C1`, the Activity in series [1] amounted to 5%; in series [3] it was 3%.
As to `COC(=O)CS(=O)(=O)N1CCc2cc(OCc3ccc(OC(C)C)c(C#N)c3)ccc2C1`, the Activity in series [1] is 6%; in series [3] (filed as agonist), 89%. The EC50 in series [2] came out at 279 nM.
With `CC(C)Oc1ccc(COc2ccc3c(c2)CN(S(=O)(=O)CCC(=O)O)CCC3)cc1C#N`, the Activity in series [1] came out at 8%; in series [3] it was 0%.
In the same order, the values of `CC(C)Oc1ccc(COc2ccc3c(c2)CCCN(CCC(=O)O)C3)cc1C#N` are 3% and 2%.
With `CC(C)Oc1ccc(COc2ccc3c(c2)OCCN(S(=O)(=O)CCO)C3)cc1C#N`, the values for the Activity in series [1] (filed as agonist) and in series [3] (filed as agonist) were 65% and 96%, respectively. Besides, the results for the EC50 in series [2] and in series [4] were 22.3 nM and 674 nM, respectively.
Consider `CC(C)Oc1ccc(COc2ccc3c(c2)CCN(C(=O)CCO)C3)cc1C#N`, for which the Activity was 36% in series [1] and 88% in series [3] (filed as agonist). Further, the EC50 in series [2] came to 184 nM.
For `CC(C)Oc1ccc(COc2ccc3c(c2)CCN(CC(=O)O)C3)cc1C#N`, the Activity in series [1] (filed as agonist) was found to be 56%; in series [3] (filed as agonist) it was 67%. Besides, the 50% effective concentration (EC50) in series [2] came to 695 nM; in series [4], 1.06 nM.
In the same order, the values of `CC(C)Oc1ccc(COc2ccc3c(c2)CCN(C(=O)CCC(N)=O)C3)cc1C#N` are 47%, 91%, 109 nM and 2260 nM.
Consider `CC(C)Oc1ccc(COc2ccc3c(c2)CN(CCC(=O)O)CCC3)cc1C#N`, for which the results for the Activity in series [1] and in series [3] were 13% and 6%, respectively.
In the same order, the values of `CC(C)Oc1ccc(COc2ccc3c(c2)CCN(S(=O)(=O)CC(=O)O)C3C)cc1C#N` (configuration not stated) are 21% and 17%.
Take `CC(C)Oc1ccc(COc2ccc3c(c2)CN(CCC(=O)O)CC3)cc1C#N`: the values for the Activity in series [1] and in series [3] were 1% and 2%, respectively.
In the same order, the values of `CC(C)Oc1ccc(COc2ccc3c(c2)CN(S(=O)(=O)CCCO)CC3)cc1C#N` are 3% and 7%.
Regarding `CC(C)Oc1ccc(COc2ccc3c(n2)CCN(S(=O)(=O)CCCO)C3)cc1C#N`, the Activity in series [1] stood at 10%; in series [3] (filed as agonist), 118%. Moreover, in series [2], the EC50 came to 346 nM.
As for `CC(C)Oc1ccc(COc2ccc3c(c2)CCN(S(=O)(=O)CC(=O)O)C3)cc1C#N`, the Activity amounted to 85% in series [1] (filed as agonist) and 92% in series [3] (filed as agonist). The EC50 was 162 nM in series [2] and 89 nM in series [4].
With `CC(C)Oc1ccc(COc2ccc3c(c2)CCN(S(=O)(=O)CCO)C3)cc1C#N`, the Activity worked out at 44% in series [1] (filed as agonist) and 88% in series [3] (filed as agonist). The EC50 in series [2] stood at 191 nM.
For `CC(C)Oc1ccc(CN(C)c2ccc3c(c2)CCN(S(=O)(=O)CCC(=O)O)C3)cc1C#N`, the Activity in series [1] is 8%; in series [3], 9%.
Regarding `CC(C)Oc1ccc(COc2cccc3c2CCN(CCC(=O)O)C3)cc1C#N`, the Activity in series [1] turned out to be 6%; in series [3], 2%.
On to `CC(C)Oc1ccc(COc2ccc3c(c2)CCN(CCCC(=O)O)C3)cc1C#N`, for which the Activity in series [1] (filed as agonist) stood at 79%; in series [3] (filed as agonist), 91%. The EC50 in series [2] was determined as 98.2 nM; in series [4], 97.1 nM.
Take `COC(=O)CCS(=O)(=O)N1CCc2cc(NCc3ccc(OC(C)C)c(C#N)c3)ccc2C1`: the Activity was 13% in series [1] and 26% in series [3].
With `CC(C)Oc1ccc(COc2cccc3c2CCN(S(=O)(=O)CCCO)C3)cc1C#N`, the figures for the Activity in series [1] and in series [3] were 3% and 1%, respectively.
In the same order, the values of `CC(C)Oc1ccc(COc2ccc3c(c2)CCN(CCCO)C3)cc1C#N` are 5% and 30%.
Turning to `CC(C)Oc1ccc(COc2ccc3c(c2)CCN(S(=O)(=O)CCCO)C3)cc1C#N`, the Activity in series [1] was 6%; in series [3] (filed as agonist) it was 72%. The EC50 in series [2] was determined as 496 nM.
Regarding `COC(=O)CN1CCc2cc(OCc3ccc(OC(C)C)c(C#N)c3)ccc2C1`, the Activity in series [1] turned out to be 13%; in series [3], 32%.
On to `CC(C)Oc1ccc(COc2ccc3c(c2)CCN(CCC(=O)O)C3C)cc1C#N` (configuration not stated), for which the Activity is 69% in series [1] (filed as agonist) and 74% in series [3] (filed as agonist). Besides, the EC50 in series [2] worked out at 105 nM; in series [4] it was 524 nM.
Turning to `CC(=O)NCCC(=O)N1CCc2cc(OCc3ccc(OC(C)C)c(C#N)c3)ccc2C1`, the Activity was 41% in series [1] (filed as agonist) and 117% in series [3] (filed as agonist). For the same compound, the figures for the remaining at 0.5 h in series [5] and in series [6] were 14.9% and 29.7%, respectively. The EC50 in series [2] was 276 nM; in series [4], 1720 nM.
`COC(=O)CCS(=O)(=O)N1CCc2cc(OCc3ccc(OC(C)C)c(C#N)c3)ccc2C1`: the Activity in series [1] was 9%; in series [3] (filed as agonist), 103%. In series [2], the EC50 worked out at 59.9 nM.
In the case of `CC(C)Oc1ccc(COc2ccc3c(c2)CCN(S(=O)(=O)CCC(=O)O)CC3)cc1C#N`, the results for the Activity in series [1] and in series [3] were 9% and 25%, respectively.
In the same order, the values of `CC(C)Oc1ccc(COc2ccc3c(c2)CCN(CCO)C3)cc1C#N` are 7% and 32%.
In the same order, the values of `CC(C)Oc1ccc(COc2ccc3c(c2)OCCN(CCC(=O)O)C3)cc1C#N` are 14% and 24%.
As for `COC(=O)CCCN1CCc2cc(OCc3ccc(OC(C)C)c(C#N)c3)ccc2C1`, the values for the Activity in series [1] and in series [3] (filed as agonist) were 7% and 91%, respectively. Besides, the EC50 in series [2] is 154 nM.
Take `CC(C)Oc1ccc(COc2ccc3c(c2)CCCN3S(=O)(=O)CCCO)cc1C#N`: the Activity in series [1] came out at 3%; in series [3] it was 35%.
With `CC(C)Oc1ccc(COc2ccc3c(c2)CCN(C(=O)CCC(=O)O)C3C)cc1C#N` (configuration not stated), the Activity turned out to be 57% in series [1] (filed as agonist) and 40% in series [3] (filed as agonist). Besides, in series [4], the EC50 was found to be 951 nM.
For the compound `CC(C)Oc1ccc(COc2ccc3c(c2)CCN(C(C)C(=O)O)C3)cc1C#N` (configuration not stated), the results for the Activity in series [1] and in series [3] were 10% and 18%, respectively.

Values taken from ChEMBL document CHEMBL5346978, “Exploration of Tetrahydroisoquinoline- and Benzo[c]azepine-Based Sphingosine 1-Phosphate Receptor 1 Agonists for the Treatment of Multiple Sclerosis” (J Med Chem, 2023).
